Reference: patent US7342030B2, “Indole derivatives” (Hoffmann-La Roche Inc., priority 2004, dated 2008)

Each compound was assayed on HEK293 cells (assay: Viability Assay of HEK293 Cells (CellTiter-Glo Luminescent Cell Viability Assay)). Conditions: Homo sapiens, 7 days (168 h) incubation, compounds 3 μM to 0.00015 μM, ATP luminescence.
Format: cell-based
Protocol: Viability Assay of HEK293 Cells
A viability assay was performed using the CellTiter-Glo® Luminescent Cell Viability Assay (see Promega Corporation's Technical Bulletin No. 288, pp. 1-11 [revised 2/04] which is hereby incorporated by reference in its entirety). This assay is a homogeneous method of determining the number of viable cells in culture based on quantitation of the ATP present, an indicator of metabolically active cells. The assay is designed for use with multiwell formats, making it ideal for automated high-throughput screening (HTS), cell proliferation and cytotoxicity assays. The homogeneous assay procedure involves adding a single reagent (containing luciferase, luciferan substrate, and buffer) directly to cells cultured in serum-supplemented medium. Cell washing, removal of medium and multiple pipetting steps are not required. The system detects as few as 15 cells/well in a 384-well format in 10 minutes after adding reagent and mixing.
The homogeneous “add-mix-measure” format results in cell lysis and generation of a luminescent signal proportional to the amount of ATP present. The amount of ATP is directly proportional to the number of cells present in culture. The above-referenced assay generates a “glow-type” luminescent signal, produced by the luciferase reaction, which has a half-life generally greater than five hours, depending on cell type and medium used. The extended half-life eliminates the need to use reagent injectors and provides flexibility for continuous or batch mode processing of multiple plates. The unique homogeneous format avoids errors that may be introduced by other ATP measurement methods that require multiple steps.
HEK293 cells (human embryonic kidney cell line transformed by Adenovirus 5 fragments, ATCC-No. CRL 1573) were cultivated in Dulbecco's Modified Eagle Medium (D-MEM) (1×) liquid (high glucose) (which includes L-Alanyl-L-Glutamine [a stabilized a form of L-Glutamine], 4500 mg/L glucose, and 110 mg/L sodium pyruvate) from Invitrogen Coropration (Invitrogen Catalog Number 31966-021 [now 10569-010] which is hereby incorporated by reference), 5% Fetal Calf Serum (FCS, Sigma Cat-No. F4135 (FBS)), 100 Units/ml penicillin/100 μg/ml streptomycin (=Pen/Strep from Invitrogen Cat. No. 15140). For the assay the cells were seeded in 384 well plates, 5000 cells per well, in the same medium. The next day the test compounds were added in various concentrations ranging from 3 μM to 0.00015 μM (10 concentrations, 1:3 diluted).
After 7 days the above viability assay was performed in accordance with the following steps: • Step 1: The cell-plate was equilibrated to room temperature for approximately 30 minutes and than the assay reagent was added. • Step 2: The contents were carefully mixed for 15 minutes to induce cell lysis. • Step 3: After 45 minutes the luminescent signal was measured in Victor 2, (a scanning multiwell spectrophotometer, Wallac). Details:
Medium: Dulbecco's Modified Eagle Medium (D-MEM) (1×) liquid (high glucose) (which includes L-Alanyl-L-Glutamine [a stabilized a form/source of L-Glutamine], 4500 mg/L glucose, and 110 mg/L sodium pyruvate) from Invitrogen Coropration (Invitrogen Catalog Number 31966-021 [now 10569-010] which is hereby incorporated by reference in its entirety), 5% Fetal Calf Serum (FCS, Sigma Cat-No. F4135 [FBS] which is hereby incorporated by reference in its entirety), Pen/Strep contaning 100 Units/ml penicillin/100 μg/ml streptomycin (Invitrogen Catalog Number 15140, which is hereby incorporated by reference in its entirety). —HEK293 (ATCC-No. CRL 1573): 5000 cells in 60 μl per well of 384 well plate (Greiner 781098, white plates) • Incubate 24 h at 37° C., 5% CO2
2. Day: Induction (Substance Testing): […]

With Fc1cc(NCc2coc(-c3cc4cc(Cl)ccc4[nH]3)n2)ccc1CCCCn1ccnn1 [Example 33, [2-(5-Chloro-1H-indol-2-yl)-oxazol-4-ylmethyl]-[3-fluoro-4-(4-[1,2,3]triazol-1-yl-butyl)-phenyl]-amine] as the compound, how does the IC50 read?
The IC50 was 0.1 to 50 nM.

How did the IC50 turn out when Fc1ccc2cc(-c3nc(CNc4ccc(CCCCn5ccnn5)cc4)co3)[nH]c2c1 [Example 23, [2-(6-Fluoro-1H-indol-2-yl)-oxazol-4-ylmethyl]-[4-(4-[1,2,3]triazol-1-yl-butyl)-phenyl]-amine] was run?
Its IC50 is 0.1 to 50 nM.

With Cc1cc(OCc2coc(-c3cc4cc(F)ccc4[nH]3)n2)ccc1CCCCn1ccnn1 [Example 7, 5-Fluoro-2-{4-[3-methyl-4-(4-[1,2,3]triazol-1-yl-butyl)-phenoxymethyl]-oxazol-2-yl}-1H-indole] as the compound, how does the IC50 read?
The IC50 was 0.1 to 50 nM.

How did the IC50 turn out when Fc1cc(CCCCn2ccnn2)ccc1NCc1coc(-c2cc3cc(Cl)ccc3[nH]2)n1 [Example 35, [2-(5-Chloro-1H-indol-2-yl)-oxazol-4-ylmethyl]-[2-fluoro-4-(4-[1,2,3]triazol-1-yl-butyl)-phenyl]-amine] was run?
The IC50 was 50 to 500 nM.

Which IC50 does the source give for O=S(=O)(Cc1coc(-c2cc3cc(F)ccc3[nH]2)n1)c1ccc(CCCCn2ccnn2)cc1 [Example 21, 5-Fluoro-2-{4-[4-(4-[1,2,3]triazol-1-yl-butyl)-benzenesulfonylmethyl]-oxazol-2-yl}-1H-indole] here?
The IC50 was 50 to 500 nM.

For Fc1ccc2cc(-c3nc(COc4ccc(CCCCn5ccnn5)cc4)co3)[nH]c2c1 [Example 4, 6-Fluoro-2-{4-[4-(4-[1,2,3]triazol-1-yl-butyl)-phenoxymethyl]-oxazol-2-yl}-1H-indole], which IC50 is on record?
The IC50 was 0.1 to 50 nM.

Which IC50 does the source give for Clc1ccc2cc(-c3nc(COc4cccc(CCCn5ccnn5)c4)co3)[nH]c2c1 [Example 16, 6-Chloro-2-{4-[3-(3-[1,2,3]triazol-1-yl-propyl)-phenoxymethyl]-oxazol-2-yl}-1H-indole] here?
Its IC50 is 0.1 to 50 nM.

For FC(F)(F)Oc1ccc2[nH]c(-c3nc(COc4ccc(CCCCn5ccnn5)cc4)co3)cc2c1 [Example 1, 2-{4-[4-(4-[1,2,3]Triazol-1-yl-butyl)-phenoxymethyl]-oxazol-2-yl}-5-trifluoromethoxy-1H-indole], which IC50 is on record?
Its IC50 is 0.1 to 50 nM.

How did the IC50 turn out when Clc1ccc2[nH]c(-c3nc(COc4ccc(CCCCn5ccnn5)cc4)co3)cc2c1 [Example 2, 5-Chloro-2-{4-[4-(4-[1,2,3]triazol-1-yl-butyl)-phenoxymethyl]-oxazol-2-yl}-1H-indole] was run?
Its IC50 is 0.1 to 50 nM.

With [O-][S+](CCn1ccnn1)Cc1ccc(OCc2coc(-c3cc4cc(Cl)ccc4[nH]3)n2)cc1 (stereo not drawn) [Example 12, 5-Chloro-2-{4-[4-(2-[1,2,3]triazol-1-yl-ethanesulfinylmethyl)-phenoxymethyl]-oxazol-2-yl}-1H-indole] as the compound, how does the IC50 read?
The IC50 was 500 to 1000 nM.

With Cc1cc(OCc2coc(-c3cc4ccc(F)cc4[nH]3)n2)ccc1CCCCn1ccnn1 [Example 8, 6-Fluoro-2-{4-[3-methyl-4-(4-[1,2,3]triazol-1-yl-butyl)-phenoxymethyl]-oxazol-2-yl}-1H-indole] as the compound, how does the IC50 read?
The IC50 was 0.1 to 50 nM.

With Clc1ccc2[nH]c(-c3nc(COc4ccc(COCCn5ccnn5)cc4)co3)cc2c1 [Example 10, 5-Chloro-2-{4-[4-(2-[1,2,3]triazol-1-yl-ethoxymethyl)-phenoxymethyl]-oxazol-2-yl}-1H-indole] as the compound, how does the IC50 read?
Its IC50 is 0.1 to 50 nM.

Clc1ccc2[nH]c(-c3nc(COc4ccc(COCCn5ccnn5)cc4)cs3)cc2c1 [Example 18, 5-Chloro-2-{4-[4-(2-[1,2,3]triazol-1-yl-ethoxymethyl)-phenoxymethyl]-thiazol-2-yl}-1H-indole] was tested. Which IC50 did it give?
The IC50 was 50 to 500 nM.

For [O-][S+](CCn1ccnn1)Cc1ccc(OCc2coc(-c3cc4cc(F)ccc4[nH]3)n2)cc1 (stereo not drawn) [Example 13, 5-Fluoro-2-{4-[4-(2-[1,2,3]triazol-1-yl-ethanesulfinylmethyl)-phenoxymethyl]-oxazol-2-yl}-1H-indole], which IC50 is on record?
The IC50 was 50 to 500 nM.

How did the IC50 turn out when Cc1cc(OCc2coc(-c3cc4cc(F)ccc4[nH]3)n2)ccc1COCCn1ccnn1 [Example 40, 5-Fluoro-2-{4-[3-methyl-4-(2-[1,2,3]triazol-1-yl-ethoxymethyl)-phenoxymethyl]-oxazol-2-yl}-1H-indole] was run?
The IC50 was 0.1 to 50 nM.

How did the IC50 turn out when Clc1ccc2[nH]c(-c3nc(COc4ccc(CCCCn5ccnn5)cc4)cs3)cc2c1 [Example 17, 5-Chloro-2-{4-[4-(4-[1,2,3]triazol-1-yl-butyl)-phenoxymethyl]-thiazol-2-yl}-1H-indole] was run?
Its IC50 is 0.1 to 50 nM.

Cc1cc(NCc2coc(-c3cc4cc(Cl)ccc4[nH]3)n2)ccc1CCCCn1ccnn1 [Example 29, [2-(5-Chloro-1H-indol-2-yl)-oxazol-4-ylmethyl]-[3-methyl-4-(4-[1,2,3]triazol-1-yl-butyl)-phenyl]-amine] was tested. Which IC50 did it give?
The IC50 was 0.1 to 50 nM.

Fc1ccc2[nH]c(-c3nc(COc4ccc(CCCCn5ccnn5)cc4)co3)cc2c1 [Example 3, 5-Fluoro-2-{4-[4-(4-[1,2,3]triazol-1-yl-butyl)-phenoxymethyl]-oxazol-2-yl}-1H-indole] was tested. Which IC50 did it give?
Its IC50 is 6.6 nM.

Fc1ccc2[nH]c(-c3nc(CNc4ccc(CCCCn5ccnn5)nc4)co3)cc2c1 [Example 38, [2-(5-Fluoro-1H-indol-2-yl)-oxazol-4-ylmethyl]-[6-(4-[1,2,3]triazol-1-yl-butyl)-pyridin-3-yl]-amine] was tested. Which IC50 did it give?
The IC50 was 50 to 500 nM.

With Fc1ccc2[nH]c(-c3nc(CNc4ccc(CCCCn5ccnn5)c(F)c4)co3)cc2c1 [Example 32, [2-(5-Fluoro-1H-indol-2-yl)-oxazol-4-ylmethyl]-[3-fluoro-4-(4-[1,2,3]triazol-1-yl-butyl)-phenyl]-amine] as the compound, how does the IC50 read?
The IC50 was 0.1 to 50 nM.

With Fc1ccc2[nH]c(-c3nc(CNc4ccc(CCCCn5ccnn5)cc4)co3)cc2c1 [Example 24, [2-(5-Fluoro-1H-indol-2-yl)-oxazol-4-ylmethyl]-[4-(4-[1,2,3]triazol-1-yl-butyl)-phenyl]-amine] as the compound, how does the IC50 read?
Its IC50 is 37 nM.

How did the IC50 turn out when Fc1ccc2[nH]c(-c3nc(COc4ccc(COCCn5ccnn5)cc4)co3)cc2c1 [Example 11, 5-Fluoro-2-{4-[4-(2-[1,2,3]triazol-1-yl-ethoxymethyl)-phenoxymethyl]-oxazol-2-yl}-1H-indole] was run?
Its IC50 is 0.1 to 50 nM.

With FC(F)(F)Oc1ccc2[nH]c(-c3nc(COc4cccc(CCCn5ccnn5)c4)co3)cc2c1 [Example 14, 2-{4-[3-(3-[1,2,3]Triazol-1-yl-propyl)-phenoxymethyl]-oxazol-2-yl}-5-trifluoromethoxy-1H-indole] as the compound, how does the IC50 read?
The IC50 was 500 to 1000 nM.

For FC(F)(F)Oc1ccc2[nH]c(-c3nc(CNc4ccc(CCCCn5ccnn5)cc4)co3)cc2c1 [Example 22, [4-(4-[1,2,3]Triazol-1-yl-butyl)-phenyl]-[2-(5-trifluoromethoxy-1H-indol-2-yl)-oxazol-4-ylmethyl]-amine], which IC50 is on record?
Its IC50 is 50 to 500 nM.
